Source: EP0933350A1, “Tricyclic retinoids, methods for their production and use” (LIGAND PHARMACEUTICALS INCORPORATED, priority 1994, dated 1996)

Columns and labels:
RARα [1] = molecular target: T1, RARα (Homo sapiens, UniProt P10276); test: co-transfection assay (RAR/RXR agonist activity, luciferase reporter in CV-1 cells); format: cell-based; details: read-out: RARα Pot
T1 sequence (P10276 1-462): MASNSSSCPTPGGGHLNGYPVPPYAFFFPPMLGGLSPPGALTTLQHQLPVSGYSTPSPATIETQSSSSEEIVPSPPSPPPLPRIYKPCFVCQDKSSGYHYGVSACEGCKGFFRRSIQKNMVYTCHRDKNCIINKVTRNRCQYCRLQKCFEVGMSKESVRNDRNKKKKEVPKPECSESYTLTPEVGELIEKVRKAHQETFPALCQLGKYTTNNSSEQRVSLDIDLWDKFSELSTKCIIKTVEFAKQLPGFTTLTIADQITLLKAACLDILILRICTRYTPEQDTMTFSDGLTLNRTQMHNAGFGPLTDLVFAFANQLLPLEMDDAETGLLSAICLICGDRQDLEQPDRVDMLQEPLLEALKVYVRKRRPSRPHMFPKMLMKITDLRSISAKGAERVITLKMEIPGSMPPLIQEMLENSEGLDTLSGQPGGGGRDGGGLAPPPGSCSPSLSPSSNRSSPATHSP

RARβ [2] = molecular target: T2, RARβ (Homo sapiens, UniProt P10826); test: as above; format: cell-based; details: potency = EC50, agonist, 40 hours, read-out: RARβ Pot
T2 sequence (P10826 1-448 isoform P10826-2): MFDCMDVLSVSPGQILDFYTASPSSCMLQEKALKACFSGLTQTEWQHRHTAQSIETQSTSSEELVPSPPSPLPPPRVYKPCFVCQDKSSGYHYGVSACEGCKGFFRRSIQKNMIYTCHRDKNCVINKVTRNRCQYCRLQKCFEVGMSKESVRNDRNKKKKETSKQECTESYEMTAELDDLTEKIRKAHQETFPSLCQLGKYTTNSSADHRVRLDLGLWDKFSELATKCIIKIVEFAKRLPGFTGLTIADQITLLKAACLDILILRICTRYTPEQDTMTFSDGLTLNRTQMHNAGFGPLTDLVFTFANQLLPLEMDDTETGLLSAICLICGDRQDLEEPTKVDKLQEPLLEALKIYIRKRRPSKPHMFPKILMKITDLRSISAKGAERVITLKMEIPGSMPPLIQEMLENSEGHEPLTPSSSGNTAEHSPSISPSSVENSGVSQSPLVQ

RARγ [3] = molecular target: T3, RARγ (Homo sapiens, UniProt P13631); test: as above; format: cell-based; details: potency = EC50, agonist, 40 hours, read-out: RARγ Pot
T3 sequence (P13631 1-454): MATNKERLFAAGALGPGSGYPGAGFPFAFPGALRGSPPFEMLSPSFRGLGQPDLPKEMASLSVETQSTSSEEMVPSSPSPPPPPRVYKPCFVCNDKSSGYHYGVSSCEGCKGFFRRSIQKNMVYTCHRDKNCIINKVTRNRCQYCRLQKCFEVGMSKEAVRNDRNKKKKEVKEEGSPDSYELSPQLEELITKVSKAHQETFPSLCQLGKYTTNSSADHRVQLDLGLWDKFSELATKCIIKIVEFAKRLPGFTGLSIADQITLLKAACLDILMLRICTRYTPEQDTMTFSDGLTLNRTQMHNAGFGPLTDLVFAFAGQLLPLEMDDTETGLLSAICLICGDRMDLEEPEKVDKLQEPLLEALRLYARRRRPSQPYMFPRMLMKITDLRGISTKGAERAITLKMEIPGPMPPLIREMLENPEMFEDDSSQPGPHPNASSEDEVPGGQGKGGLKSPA

RXRα [4] = molecular target: T4, RXRα (Homo sapiens, UniProt P19793); test: as above; format: cell-based; details: read-out: RXRα Pot
T4 sequence (P19793 1-462): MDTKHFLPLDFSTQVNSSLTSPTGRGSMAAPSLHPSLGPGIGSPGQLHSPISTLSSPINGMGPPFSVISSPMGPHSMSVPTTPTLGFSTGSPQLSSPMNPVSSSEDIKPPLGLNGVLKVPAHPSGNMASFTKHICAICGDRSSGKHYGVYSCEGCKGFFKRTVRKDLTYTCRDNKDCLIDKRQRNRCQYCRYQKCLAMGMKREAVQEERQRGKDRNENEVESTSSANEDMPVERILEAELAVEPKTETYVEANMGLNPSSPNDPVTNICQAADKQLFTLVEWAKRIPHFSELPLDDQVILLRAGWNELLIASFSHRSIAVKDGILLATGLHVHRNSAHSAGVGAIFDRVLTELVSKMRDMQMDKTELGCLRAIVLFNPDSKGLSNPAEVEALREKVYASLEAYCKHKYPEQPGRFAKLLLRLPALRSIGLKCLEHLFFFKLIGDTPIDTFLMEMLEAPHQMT

RXRβ [5] = molecular target: T5, RXRβ (Mus musculus, UniProt P28704); test: as above; format: cell-based; details: read-out: RXRβ Pot
T5 sequence (P28704 1-520): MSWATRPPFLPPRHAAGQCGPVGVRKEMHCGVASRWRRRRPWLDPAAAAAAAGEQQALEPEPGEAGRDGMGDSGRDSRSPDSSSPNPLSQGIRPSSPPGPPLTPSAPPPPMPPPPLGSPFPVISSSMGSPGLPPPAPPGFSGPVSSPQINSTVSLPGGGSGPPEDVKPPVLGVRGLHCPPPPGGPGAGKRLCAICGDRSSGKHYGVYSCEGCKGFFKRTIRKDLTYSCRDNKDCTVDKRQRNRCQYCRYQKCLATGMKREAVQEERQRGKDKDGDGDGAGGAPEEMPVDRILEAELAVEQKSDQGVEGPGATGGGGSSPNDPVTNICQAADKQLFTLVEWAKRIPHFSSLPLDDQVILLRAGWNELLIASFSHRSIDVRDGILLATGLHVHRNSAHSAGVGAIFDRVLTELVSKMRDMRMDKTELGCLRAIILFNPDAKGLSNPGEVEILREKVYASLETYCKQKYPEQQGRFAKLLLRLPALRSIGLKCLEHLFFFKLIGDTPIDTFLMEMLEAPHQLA

RXRγ [6] = molecular target: T6, RXRγ (Mus musculus, UniProt P28705); test: as above; format: cell-based; details: read-out: RXRγ Pot
T6 sequence (P28705 1-463): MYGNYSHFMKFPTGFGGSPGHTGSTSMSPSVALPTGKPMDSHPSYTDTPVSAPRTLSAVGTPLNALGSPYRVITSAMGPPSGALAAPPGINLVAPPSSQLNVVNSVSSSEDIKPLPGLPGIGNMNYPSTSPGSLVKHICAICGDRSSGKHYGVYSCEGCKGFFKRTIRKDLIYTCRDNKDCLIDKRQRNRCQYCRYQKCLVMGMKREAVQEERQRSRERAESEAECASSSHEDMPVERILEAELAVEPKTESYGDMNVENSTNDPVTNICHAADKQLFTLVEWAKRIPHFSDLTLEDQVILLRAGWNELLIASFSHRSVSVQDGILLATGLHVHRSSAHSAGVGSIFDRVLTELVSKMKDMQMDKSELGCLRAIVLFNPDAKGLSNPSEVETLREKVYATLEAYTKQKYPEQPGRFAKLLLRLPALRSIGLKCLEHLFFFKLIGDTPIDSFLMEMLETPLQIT

RPMI 8226 cell line = test: viability (tetrazolium dye, mitochondrial function); format: cell-based; details: Homo sapiens, 96 hours, read-out: MTS IC50
ME 180 cell line = test: as above; format: cell-based; details: Homo sapiens, 96 hours, read-out: MTS IC50
AML-193 cell line = test: as above; format: cell-based; details: Homo sapiens, 96 hours, read-out: MTS IC50
RARα [7] = molecular target: T1, RARα; test: competitive binding of tritiated retinoids to retinoid receptors; details: competition with tritiated retinoid, Cheng-Prussof equation
RARβ [8] = molecular target: T7, RARβ (Homo sapiens, UniProt P10826); test: as above; details: competition with tritiated retinoid, Cheng-Prussof equation
T7 sequence (P10826 1-455): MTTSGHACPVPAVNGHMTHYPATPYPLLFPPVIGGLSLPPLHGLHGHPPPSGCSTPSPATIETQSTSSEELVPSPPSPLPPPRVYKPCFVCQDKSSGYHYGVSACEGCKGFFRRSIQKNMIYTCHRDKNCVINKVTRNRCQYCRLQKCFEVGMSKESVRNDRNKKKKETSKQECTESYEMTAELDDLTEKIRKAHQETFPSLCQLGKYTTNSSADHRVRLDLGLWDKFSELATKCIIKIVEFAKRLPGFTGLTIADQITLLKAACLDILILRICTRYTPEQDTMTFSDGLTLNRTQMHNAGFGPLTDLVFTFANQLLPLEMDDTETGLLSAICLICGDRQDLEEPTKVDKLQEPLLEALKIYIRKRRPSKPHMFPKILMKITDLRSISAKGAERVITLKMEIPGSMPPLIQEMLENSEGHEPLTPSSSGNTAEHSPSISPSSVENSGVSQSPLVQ

RARγ [9] = molecular target: T3, RARγ; test: as above; details: competition with tritiated retinoid, Cheng-Prussof equation
RXRα [10] = molecular target: T4, RXRα; test: as above; details: competition with tritiated retinoid, Cheng-Prussof equation
RXRβ [11] = molecular target: T5, RXRβ; test: as above; details: competition with tritiated retinoid, Cheng-Prussof equation
RXRγ [12] = molecular target: T6, RXRγ; test: as above; details: competition with tritiated retinoid, Cheng-Prussof equation

SMILES | EC50 (RARα [1]) | EC50 (RARβ [2]) | EC50 (RARγ [3]) | EC50 (RXRα [4]) | EC50 (RXRβ [5]) | EC50 (RXRγ [6]) | Kd (RARα [7]) | Kd (RARβ [8]) | Kd (RARγ [9]) | Kd (RXRα [10]) | Kd (RXRβ [11]) | Kd (RXRγ [12]) | IC50 (RPMI 8226 cell line) | IC50 (ME 180 cell line) | IC50 (AML-193 cell line)
CC(/C=C/C=C1/CCC(C)(C)c2cc3c(cc21)C(C)(C)CCC3(C)C)=C\C(=O)O [Compound 106b, (2E,4E)-3-Methyl-6-[(Z)-1,2,3,4,5,6,7,8-hexahydro-4,4,5,5,8,8-hexamethyl-2H-anthracen-1-ylidene]hexa-2,4-dienoic acid] | 84 nM | 20 nM | 14 nM | > 10000 nM | 52 nM | 127 nM |  |  |  |  |  |  |  |  | 
CC(/C=C/CC1CCCc2cc3c(cc21)C(C)(C)CCC3(C)C)=C\C(=O)O (racemic) [Compound 124b, (2E,4E)-3-Methyl-6-(1,2,3,4,5,6,7,8-octahydro-5,5,8,8-tetramethylanthracen-1-yl)hexa-2,4-dienoic acid] | 101 nM | 33 nM | 94 nM | 38 nM | 37 nM | 26 nM |  |  |  |  |  |  |  |  | 
CC1=C(/C=C/C(C)=C/C=C/C(C)=C/C(=O)O)C(C)(C)CCC1 [ATRA, all-trans retinoic acid, reference compound] |  |  |  |  |  |  |  |  |  |  |  |  | 756 nM | 890 nM | 1000 nM
CC(/C=C/CN1CCCc2c1ccc1c2C(C)(C)CCC1(C)C)=C\C(=O)O [Compound 143b, (2E,4E)-3-Methyl-6-(1,2,3,4,7,8,9,10-octahydro-7,7,10,10-tetramethylbenzo[f]quinolin-4-yl)hexa-2,4-dienoic acid] | > 10000 nM | 466 nM | 1880 nM | 393 nM | 472 nM | 247 nM |  |  |  |  |  |  |  |  | 

Continued, in another order:

EC50 (RARα [1]) | EC50 (RARβ [2]) | EC50 (RARγ [3]) | EC50 (RXRα [4]) | EC50 (RXRβ [5]) | EC50 (RXRγ [6]) | Kd (RARα [7]) | Kd (RARβ [8]) | Kd (RARγ [9]) | Kd (RXRα [10]) | Kd (RXRβ [11]) | Kd (RXRγ [12]) | SMILES | IC50 (RPMI 8226 cell line) | IC50 (ME 180 cell line) | IC50 (AML-193 cell line)
651 nM | 8 nM | 32 nM | > 10000 nM | > 10000 nM | > 10000 nM |  |  |  |  |  |  | CC1(C)CCC(C)(C)c2cc3c(cc21)CCC/C3=N\Nc1ccc(C(=O)O)cc1 [Compound 152b, E-4-[N'-(5,5,8,8-tetramethyl-3,4,5,6,7,8-hexahydro-2H-anthracen-1-ylidene)-hydrazino]benzoic acid] |  |  | 
1170 nM | 53 nM | 47 nM | 2780 nM | 1980 nM | 2530 nM |  |  |  |  |  |  | CC(/C=C/C=C1\CCc2c1ccc1c2C(C)(C)CCC1(C)C)=C\C(=O)O [Compound 135b, (2E,4E)-3-Methyl-6-[(E)-2,3,6,7,8,9-hexahydro-6,6,9,9-tetramethyl-1H-cyclopenta[a]naphthalen-3-ylidene]hexa-2,4-dienoic acid] |  |  | 
863 nM | 32 nM | 12 nM | > 10000 nM | > 10000 nM | 2930 nM |  |  |  |  |  |  | CC(/C=C/C(=O)N1CCc2cc3c(cc21)C(C)(C)CCC3(C)C)=C\C(=O)O [Compound 141b, (2E,4E)-3-Methyl-6-oxo-6-[(2,3,5,6,7,8-hexahydro-5,5,8,8-tetramethyl)benzo-[f]-indol-1-yl]hexa-2,4-dienoic acid] |  |  | 
35 nM | 4 nM | 1 nM |  | 579 nM | 1470 nM | 6 nM | 4 nM | 8 nM | 433 nM | 548 nM | 724 nM | CCN1CC\C(=C/C=C/C(C)=C/C(=O)O)c2cc3c(cc21)C(C)(C)CCC3(C)C [Compound 147b, (2E,4E)-3-methyl-6-[(E)1-ethyl-6,6,9,9-tetramethyl-2,3,6,7,8,9-hexahydro-1H-benzo[g]quinolin-4-ylidene]hexa-2,4-dienoic acid] |  |  | 
